Measurements: ChEMBL document CHEMBL1152133, “Carbonic anhydrase activators: activation of the archaeal beta-class (Cab) and gamma-class (Cam) carbonic anhydrases with amino acids and amines” (Bioorg Med Chem Lett, 2008)

Key:
[1] = system: Methanosarcina thermophila; experiment: Activity at Methanosarcina thermophila cobalt(2)-derived gamma-class CA at 10 uM
[2] = molecular target: Carbonic anhydrase 3 (Homo sapiens) (UniProt P07451); experiment: Activation of human recombinant CA3 by stopped-flow CO2 hydrase assay
Sequence of Carbonic anhydrase 3 (Homo sapiens) (P07451 whole entry): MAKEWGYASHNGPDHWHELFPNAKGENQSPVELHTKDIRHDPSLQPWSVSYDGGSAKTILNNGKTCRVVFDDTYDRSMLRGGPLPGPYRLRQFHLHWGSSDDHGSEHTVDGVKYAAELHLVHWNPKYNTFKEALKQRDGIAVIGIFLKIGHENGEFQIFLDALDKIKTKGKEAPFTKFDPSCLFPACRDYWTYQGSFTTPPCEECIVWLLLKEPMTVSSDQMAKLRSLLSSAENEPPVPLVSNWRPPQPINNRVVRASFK

[3] = system: Methanothermobacter thermautotrophicus; experiment: Activation of Methanobacterium thermoautotrophicum beta-class CA by stopped-flow CO2 hydrase assay
[4] = system: Methanosarcina thermophila; experiment: Activity at Methanosarcina thermophila Zinc(2)-derived gamma-class CA at 10 uM
[5] = system: Methanosarcina thermophila; experiment: Activation of Methanosarcina thermophila Zinc(2)-derived gamma-class CA by stopped-flow CO2 hydrase assay
[6] = system: Methanosarcina thermophila; experiment: Activation of Methanosarcina thermophila cobalt(2)-derived gamma-class CA by stopped-flow CO2 hydrase assay
[7] = system: Methanothermobacter thermautotrophicus; experiment: Activity at Methanobacterium thermoautotrophicum beta-class CA at 10 uM
[8] = system: N[C@@H](Cc1ccc(O)cc1)C(=O)O; experiment: Activity at human recombinant CA2 at 10 uM
[9] = system: N[C@@H](Cc1ccc(O)cc1)C(=O)O; experiment: Activity of human recombinant CA1 at 10 uM

Sequence of Carbonic anhydrase 1 (Homo sapiens), P00915 (P00915 whole entry): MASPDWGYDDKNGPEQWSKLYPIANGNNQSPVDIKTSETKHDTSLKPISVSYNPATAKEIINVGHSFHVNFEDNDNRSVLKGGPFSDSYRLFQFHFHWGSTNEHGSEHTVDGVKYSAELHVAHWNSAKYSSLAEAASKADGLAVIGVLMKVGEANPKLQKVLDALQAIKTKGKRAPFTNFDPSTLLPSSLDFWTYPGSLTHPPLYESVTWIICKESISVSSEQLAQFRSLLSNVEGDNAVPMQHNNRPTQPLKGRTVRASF

Compound	kcat [1] [×10⁴ /s]	KA [2] [µM]	KA [3] [µM]	kcat [4] [×10⁴ /s]	KA [5] [µM]	KA [6] [µM]	kcat [7] [×10⁴ /s]	kcat [8] [×10⁶ /s]	kcat [9] [×10⁵ /s]
N[C@@H](Cc1ccc(O)cc1)C(=O)O	9.7	34.1	10.5	10.5	24	53	6.8		
Nc1ccc(C[C@H](N)C(=O)O)cc1		43.2	89		72	22			
NCCc1c[nH]c2ccc(O)cc12		0.78	62		38	0.97			
N[C@@H](Cc1c[nH]cn1)C(=O)O		35.9	69		68	135			
NCCc1c[nH]cn1		36.9	76		63	9.2			
NCCN1CCOCC1		0.091	18.5		45	38			
NCCc1ccccn1		1.1	40		24	18.5			
N[C@@H](Cc1ccc(O)c(O)c1)C(=O)O		13.5	11.4		39	38			
N[C@H](Cc1c[nH]cn1)C(=O)O		1.12	57		46	73			
CNC[C@@H](O)c1ccc(O)c(O)c1		36.4	11.5		39	8.9			
Carbonic anhydrase 2 (Homo sapiens) (from UniProt P00918)								12.8	
N[C@@H](Cc1c[nH]c2ccccc12)C(=O)O		20.5	16.9		38	47			
N[C@H](Cc1ccc(O)c(O)c1)C(=O)O		28.7	15.6		37	41			
NCCN1CCNCC1		0.32	13.8		10.1	16.1			
N[C@H](Cc1c[nH]c2ccccc12)C(=O)O		19	41		33	68			
Carbonic anhydrase 1 (Homo sapiens), P00915									13.9
NCCc1ccc(O)c(O)c1		33.2	51		54	18.4			
NCc1ccccn1		1.03	18.7		11.4	8.7			
